Experimental data from US20200323999A1 (The Board of Trustees of the Leland Stanford Junior …, priority 2019, published 2020).

Tests used:
[1] = unit not given; cited from earlier work
[2] = RF-acoustic signal characterization in tube phantom (433 MHz UHF-RF pulse); conditions: salts 10 wt %, NaOH 4 wt %; 1 mm tubes
Protocol: To determine the optimal composition of salt solutions for UHF-RF-acoustic contrast agents, five different salts were chosen, NaCl(aq), KI(aq), KCl(aq), MgCl2(aq), and CaCl2(aq) based on their ionic conductivity, solubility in water, and biocompatibility. NaOH(aq) was selected as a control because of its high ionic conductivity but low biocompatibility. […] Their UHF-RF-acoustic signals were measured using a prototype RF-acoustic tomography system with a nanosecond UHF-RF pulse at 433 MHz since this frequency is within the medical device radio-communications service band (MedRadio) (FIGS. 1B-1D). […] The generated RF-acoustic signals were collected by an ultrasound-linear-array transducer with a central frequency at 3.5 MHz that provides 1.2 mm imaging resolution on the transverse plane (FIGS. 1E-1F).
For comparison, a tube was included with only physiological saline (0.9 wt % of NaCl) to mimic RF-acoustic background of tissue. […]
A prototype RF-acoustic tomography imaging system (with main parts from Endra) was used to measure the RF-acoustic signal from the phantom and the mice. […] At each angle, 4095 pulses were recorded and averaged to improve the signal-to-noise ratio. […] The average energy density of a pulse at the target site was measured to be 1 mJ/cm^2, which is within the safety limit of tissue exposure. […] Acoustic signals were recorded by an ultrasound imaging system. […]

Row | SMILES | Water solubility [1] | RF-acoustic signal of electrolyte solutions (comparison) [2]
1 | FC(F)(F)C(F)(F)C(F)(F)C(F)(F)C(F)(F)F [Perfluoropentane, perfluoropentane] | 4.00 × 10^−6 | 
2 | [Cl-].[Na+] [NaCl, sodium chloride] |  | weaker signals than KCl
3 | [Na+].[OH-] [NaOH(aq), sodium hydroxide, reference compound] |  | strongest RF-acoustic signal
4 | FC1(F)C(F)(F)C(F)(F)C2(F)C(F)(F)C(F)(F)C(F)(F)C(F)(F)C2(F)C1(F)F (centres unmarked) [Perfluorodecalin, perfluorodecalin] | 9.90 × 10^−9 | 
5 | FC(F)(F)C(F)(F)C(F)(F)C(F)(F)C(F)(F)C(F)(F)F [Perfluorohexane, perfluorohexane] | 2.70 × 10^−7 | 
